Test results published in patent US20230212549A1, “COMPOUNDS COMPRISING A […] LIGAND AND USE THEREOF” (priority 2021, published 2023).
Numbered stars: 1 amine (or outer) side, 2 acyl side, 3 side chain; on linkers, the order of the positions; unused ones are H or OH. Bridge positions count the residues as written; N and C are the ends. Square brackets hold non-standard residues; d marks the D form. Peptide text beside a SMILES is read from it. * marks the point of attachment. X13 = O=C(O)CN1CCN(CC(=O)O)CCN(CC(=O)N2CCN(Cc3cc(C[*:1])cc(C[*:2])c3)CC2)CCN(CC(=O)O)CC1; X7 = O=C(CCP(=O)(O)CN1CCN(CP(=O)(O)CO)CCN(CP(=O)(O)CO)CC1)NCCSCc1cc(C[*:1])cc(C[*:2])c1; X12 = O=C(O)CN1CCN(CC(=O)O)CCN(CC(=O)NCCCOCCOCCOCCCN*)CCN(CC(=O)O)CC1; NH(1-deoxy-D-glucityl) = OC[C@@H](O)[C@@H](O)[C@H](O)[C@@H](O)CN*; DOTA = O=C(O)CN1CCN(CC(=O)O)CCN(CC(=O)*)CCN(CC(=O)O)CC1; Pro(4S-NH2) = N[C@@H]1CN[C@H](C(=O)O)C1; X3 = NCCNCC(CNCCN)C(=O)NCCCOCCOCCOCCCN*; 1Nal = N[C@@H](Cc1cccc2ccccc12)C(=O)O; mXylylene = c1cc(C[*:1])cc(C[*:2])c1; NMeF = CN[C@@H](Cc1ccccc1)C(=O)O; Suc = O=C(CCC(=O)[*:2])[*:1]; Nle = CCCC[C@H](N)C(=O)O; Nphe = O=C(O)CNCc1ccccc1; Orn = NCCC[C@H](N)C(=O)O; Hexanoyl = CCCCCC(=O)*; Inp = O=C(O)C1CCNCC1

Experiments:
[1] = molecular target: T1, FAP-expressing human WI-38 fibroblasts (Homo sapiens, UniProt Q12884); experiment: Competitive FACS binding assay
T1 construct: FAP-expressing human WI-38 fibroblasts (ECACC) were cultured in EMEM; host or cells: WI-38 human fibroblasts
Protocol: Cells were analyzed in an Attune NxT flow cytometer. […] […].
Cells were analyzed in an Attune NxT flow cytometer. […]

Human recombinant FAP = Human recombinant FAP (Homo sapiens, UniProt Q12884); experiment: FRET-based FAP protease activity assay; assay type: biochemical; parameters: purchased R&D systems 3715-SE
[2] = pIC50 Category (Activity), FRET-based FAP protease activity assay, recombinant human FAP, 37° C.
[3] = pIC50 Category (Activity), FRET-peptide substrate, 37° C.

T1 sequence (Q12884 whole entry): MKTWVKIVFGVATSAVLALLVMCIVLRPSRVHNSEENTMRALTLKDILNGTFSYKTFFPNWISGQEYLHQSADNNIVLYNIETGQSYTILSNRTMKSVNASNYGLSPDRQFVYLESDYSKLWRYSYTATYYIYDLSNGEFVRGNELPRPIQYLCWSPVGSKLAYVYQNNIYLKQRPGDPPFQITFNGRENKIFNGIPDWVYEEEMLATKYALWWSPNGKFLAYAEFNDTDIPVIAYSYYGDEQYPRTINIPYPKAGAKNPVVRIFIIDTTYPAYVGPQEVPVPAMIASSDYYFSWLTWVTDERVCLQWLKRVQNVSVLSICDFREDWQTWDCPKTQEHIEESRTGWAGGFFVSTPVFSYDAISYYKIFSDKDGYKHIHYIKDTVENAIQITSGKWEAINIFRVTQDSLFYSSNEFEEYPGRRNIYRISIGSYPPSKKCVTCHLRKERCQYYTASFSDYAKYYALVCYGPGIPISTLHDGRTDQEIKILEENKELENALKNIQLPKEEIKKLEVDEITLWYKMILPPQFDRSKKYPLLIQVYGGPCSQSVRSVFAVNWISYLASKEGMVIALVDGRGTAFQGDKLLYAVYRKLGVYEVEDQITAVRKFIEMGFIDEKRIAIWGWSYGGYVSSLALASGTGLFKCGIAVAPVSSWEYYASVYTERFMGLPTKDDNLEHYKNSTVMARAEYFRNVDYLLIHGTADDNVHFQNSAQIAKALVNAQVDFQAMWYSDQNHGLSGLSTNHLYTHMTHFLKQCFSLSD
Human recombinant FAP, sequence (Q12884 whole entry): as above

| SMILES | IC50 [1] [nM] | IC50 (Human recombinant FAP; [2]) [nM] | also measured |
| --- | --- | --- | --- |
| CSCC[C@H](NC(=O)CCC(=O)NCCCOCCOCCOCCCNC(=O)CN1CCN(CC(=O)O)CCN(CC(=O)O)CCN(CC(=O)O)CC1)C(=O)N[C@H]1CSCc2cccc(c2)CSC[C@@H](C(=O)N[C@@H](CC(=O)O)C(=O)N[C@@H](Cc2c[nH]cn2)C(=O)N[C@@H](Cc2ccccc2)C(=O)N[C@@H](CCCNC(=N)N)C(=O)N[C@@H](CC(=O)O)C(N)=O)NC(=O)[C@H](Cc2ccccc2)NC(=O)[C@H](CCC(=O)O)NC(=O)[C@H]([C@@H](C)O)NC(=O)[C@@H]2CCCN2C(=O)[C@@H]2CCCN2C1=O [3BP-3169, DOTA-Ttds-Met-[Cys(3MeBn)-Pro-Pro-Thr-Glu-Phe-Cys]-Asp-His-Phe-Arg-Asp-NH2] ({X12-Suc}-MCPPTEFCDHFRD-NH2; linker 2-8 via mXylylene) | < 10 | < 10 | IC50 (Human recombinant FAP; pIC50 (highest activity categories), text on Table 9 categories (FACS binding and FAP activity assay)): < 10 nM |
| CCCCCC(=O)N[C@H]1CSCc2cccc(c2)CSC[C@@H](C(N)=O)NC(=O)[C@H](Cc2ccccc2)NC(=O)[C@H](CCC(=O)O)NC(=O)[C@H](CCCNC(C)=O)NC(=O)[C@@H]2CCCN2C(=O)[C@@H]2CCCN2C1=O [3BP-3372, Hex-[Cys(3MeBn)-Pro-Pro-Orn(Ac)-Glu-Phe-Cys]-NH2] (Hexanoyl-CPP[Orn](Ac)EFC-NH2; linker 1-7 via mXylylene) | > 1000 | 100 to 794 |  |
| CCCCCC(=O)N[C@H]1CSCc2cc(cc(CN3CCN(C(=O)CN4CCN(CC(=O)O)CCN(CC(=O)O)CCN(CC(=O)O)CC4)CC3)c2)CSC[C@@H](C(=O)N[C@@H](CC(=O)O)C(N)=O)NC(=O)[C@H]([C@@H](C)O)NC(=O)[C@@H]2CCCN2C(=O)[C@H](Cc2ccccc2)NC(=O)[C@H](CCC(N)=O)NC(=O)[C@@H]2CCCN2C1=O [3BP-3857, Hex-[Cys(tMeBn(DOTA-PP))-Pro-Gln-Phe-Pro-Thr-Cys]-Asp-NH2] (Hexanoyl-CPQFPTCD-NH2; linker 1-7 via X13) | 100 to 794 | 100 to 794 |  |
| CCCCCC(=O)N[C@H]1CSCc2cccc(c2)CSC[C@@H](C(N)=O)NC(=O)[C@H](Cc2ccccc2)NC(=O)[C@H](CCC(=O)O)NC(=O)[C@H]([C@@H](C)O)NC(=O)[C@@H]2C[C@H](N)CN2C(=O)[C@@H]2CCCN2C1=O [3BP-3367, Hex-[Cys(3MeBn)-Pro-Tap-Thr-Glu-Phe-Cys]-NH2] (Hexanoyl-CP[Pro(4S-NH2)]TEFC-NH2; linker 1-7 via mXylylene) | > 1000 | 100 to 794 |  |
| CCCCCC(=O)N[C@H]1CSCc2cccc(c2)CSC[C@@H](C(=O)N[C@@H](CC(=O)O)C(=O)N[C@@H](CCCNC(=N)N)C(N)=O)NC(=O)[C@H](Cc2ccccc2)NC(=O)[C@H](CCC(=O)O)NC(=O)[C@H]([C@@H](C)O)NC(=O)[C@@H]2CCCN2C(=O)[C@@H]2CCCN2C1=O [3BP-3299, Hex-[Cys(3MeBn)-Pro-Pro-Thr-Glu-Phe-Cys]-Asp-Arg-NH2] (Hexanoyl-CPPTEFCDR-NH2; linker 1-7 via mXylylene) | < 10 | < 10 |  |
| CCCCCC(=O)N[C@H]1CSCc2cccc(c2)CSC[C@@H](C(N)=O)NC(=O)[C@H](Cc2ccccc2)N(C)C(=O)[C@H](CCC(=O)O)NC(=O)[C@H]([C@@H](C)O)NC(=O)[C@@H]2CCCN2C(=O)[C@@H]2CCCN2C1=O [3BP-3358, Hex-[Cys(3MeBn)-Pro-Pro-Thr-Glu-Nmf-Cys]-NH2] (Hexanoyl-CPPTE[NMeF]C-NH2; linker 1-7 via mXylylene) | > 1000 | 100 to 794 |  |
| CCCCCC(=O)N[C@H]1CSCc2cc(CSCCNC(=O)CCP(=O)(O)CN3CCN(CP(=O)(O)CO)CCN(CP(=O)(O)CO)CC3)cc(c2)CSC[C@@H](C(=O)O)NC(=O)[C@H](Cc2ccccc2)NC(=O)[C@H](CCC(=O)O)NC(=O)[C@H]([C@@H](C)O)NC(=O)[C@@H]2CCCN2C(=O)[C@@H]2CCCN2C1=O [3BP-4816, Hex-[C(tMeBn(GaNOPO-AET))-PPTEFC]-OH] (Hexanoyl-CPPTEFC-OH; linker 1-7 via X7) |  |  | pIC50 Category (FACS) ([1]; FAP-expressing human WI-38 fibroblasts): B (category B for pIC50 values between 7.1 and 8.0); pIC50 Category (activity) (Human recombinant FAP; Recombinant human FAP): B (category B for pIC50 values between 7.1 and 8.0) |
| CCCCCC(=O)N[C@H]1CSCc2cc(cc(CN3CCN(C(=O)CN4CCN(CC(=O)O)CCN(CC(=O)O)CCN(CC(=O)O)CC4)CC3)c2)CSC[C@@H](C(=O)N[C@@H](CC(=O)O)C(N)=O)NC(=O)[C@@H]2CCCN2C(=O)[C@H](Cc2ccccc2)NC(=O)[C@@H]2CCCN2C(=O)[C@H](CCC(N)=O)NC(=O)[C@H]([C@@H](C)O)NC1=O [3BP-3856, Hex-[Cys(tMeBn(DOTA-PP))-Thr-Gln-Pro-Phe-Pro-Cys]-Asp-NH2] (Hexanoyl-CTQPFPCD-NH2; linker 1-7 via X13) | > 1000 | > 1000 |  |
| CCCCCC(=O)N[C@H]1CSCc2cccc(c2)CSC[C@@H](C(N)=O)NC(=O)[C@H](Cc2cccc3ccccc23)NC(=O)[C@H](CCC(=O)O)NC(=O)[C@H]([C@@H](C)O)NC(=O)[C@@H]2CCCN2C(=O)[C@@H]2CCCN2C1=O [3BP-3361, Hex-[Cys(3MeBn)-Pro-Pro-Thr-Glu-1Ni-Cys]-NH2] (Hexanoyl-CPPTE[1Nal]C-NH2; linker 1-7 via mXylylene) | 10 to 79.4 | 10 to 79.4 |  |
| CCCCCC(=O)N[C@H]1CSCc2cc(CSCCNC(=O)CCCC(=O)Nc3ccc(C[C@@H](CN(CCN(CC(=O)O)CC(=O)O)CC(=O)O)N(CC(=O)O)CC(=O)O)cc3)cc(c2)CSC[C@@H](C(=O)O)NC(=O)[C@H](Cc2ccccc2)NC(=O)[C@H](CCC(N)=O)NC(=O)[C@H]([C@@H](C)O)NC(=O)[C@@H]2CCCN2C(=O)[C@@H]2CCCN2C1=O [3BP-4366, Hex-[Cys-(tMeBn(DTPABzl-Glutar-AET))-Pro-Pro-Thr-Gln-Phe-Cys]-OH] | 100 to 794 |  | IC50 (Human recombinant FAP; [3]): 100 to 794 nM |
| CCCC[C@H](NC(=O)[C@H](CCC(=O)NC[C@H](O)[C@@H](O)[C@H](O)[C@H](O)CO)NC(=O)CCC(=O)NCCCOCCOCCOCCCNC(=O)C(CNCCN)CNCCN)C(=O)N[C@H]1CSCc2cccc(c2)CSC[C@@H](C(=O)O)NC(=O)[C@H](Cc2ccccc2)NC(=O)[C@H](CCC(=O)O)NC(=O)[C@H]([C@@H](C)O)NC(=O)[C@@H]2CCCN2C(=O)[C@@H]2CCCN2C1=O [3BP-4231, N4Ac-Ttds-Glu(AGLU′)-Nle-[Cys-(3MeBn)-Pro-Pro-Thr-Glu-Phe-Cys]-OH] ({X3-Suc}-E(NH(1-deoxy-D-glucityl))[Nle]CPPTEFC-OH; linker 3-9 via mXylylene) | > 1000 |  | IC50 (Human recombinant FAP; [3]): > 1000 nM |
| CCCCNC(=O)N[C@H]1CSCc2cc(CSCCNC(=O)CCC(C(=O)O)N3CCN(CC(=O)O)CCN(CC(=O)O)CC3)cc(c2)CSCC(C(=O)O)NC(=O)[C@H](Cc2ccccc2)NC(=O)[C@H](CCC(N)=O)NC(=O)[C@H]([C@@H](C)O)NC(=O)[C@@H]2CCCN2C(=O)[C@@H]2CCCN2C1=O (stereo partly drawn) [3BP-4723, nBu-CAyl-[Cys(tMeBn(NODAGA-AET))-Pro-Pro-Thr-Gln-Phe-Cys]-OH] | < 10 |  | IC50 (Human recombinant FAP; pIC50 Category (activity), Recombinant human FAP): < 10 nM |
| CCCCCC(=O)N[C@H]1CSCc2cc(cc(CN3CCN(C(=O)CN4CCN(CC(=O)O)CCN(CC(=O)O)CCN(CC(=O)O)CC4)CC3)c2)CSC[C@@H](C(=O)N[C@@H](CC(=O)O)C(N)=O)NC(=O)[C@H](Cc2ccccc2)NC(=O)[C@H](C)NC(=O)[C@H](C)NC(=O)[C@@H]2CCCN2C(=O)[C@@H]2CCCN2C1=O [3BP-3746, Hex-[Cys(tMeBn(DOTA-PP))-Pro-Pro-Ala-Ala-Phe-Cys]-Asp-NH2] (Hexanoyl-CPPAAFCD-NH2; linker 1-7 via X13) | > 1000 | 100 to 794 |  |
| CCCCCC(=O)N[C@H]1CSCc2cccc(c2)CSC[C@@H](C(N)=O)NC(=O)[C@H](Cc2ccccc2)NC(=O)[C@H](CCC(N)=O)NC(=O)[C@H]([C@@H](C)O)NC(=O)[C@@H]2CCCN2C(=O)CN(Cc2ccccc2)C1=O [3BP-3748, Hex-[Cys(3MeBn)-Nphe-Pro-Thr-Gln-Phe-Cys]-NH2] (Hexanoyl-C[Nphe]PTQFC-NH2; linker 1-7 via mXylylene) | > 1000 | > 1000 |  |
| C[C@@H](O)[C@@H]1NC(=O)[C@@H]2CCCN2C(=O)[C@@H]2CCCN2C(=O)[C@@H](NC(=O)C2CCN(C(=O)CN3CCN(CC(=O)O)CCN(CC(=O)O)CCN(CC(=O)O)CC3)CC2)CSCc2cccc(c2)CSC[C@@H](C(=O)N[C@@H](CC(=O)O)C(=O)N[C@@H](Cc2c[nH]cn2)C(=O)N(C)[C@@H](Cc2ccccc2)C(=O)N[C@@H](CCCNC(=N)N)C(=O)N[C@@H](CC(=O)O)C(N)=O)NC(=O)[C@H](Cc2ccccc2)NC(=O)[C@H](CCC(=O)O)NC1=O [3BP-3265, DOTA-Inp-[Cys(3MeBn)-Pro-Pro-Thr-Glu-Phe-Cys]-Asp-His-Nmf-Arg-Asp-NH2] ({DOTA-Inp}-CPPTEFCDH[NMeF]RD-NH2; linker 1-7 via mXylylene) | 100 to 794 | 100 to 794 |  |
| CCCCCC(=O)N[C@H]1CSCc2cc(cc(CN3CCN(C(=O)CN4CCN(CC(=O)O)CCN(CC(=O)O)CCN(CC(=O)O)CC4)CC3)c2)CSC[C@@H](C(=O)N[C@@H](CC(=O)O)C(N)=O)NC(=O)[C@H](CCC(N)=O)NC(=O)[C@H](Cc2ccccc2)NC(=O)[C@@H]2CCCN2C(=O)[C@H]([C@@H](C)O)NC(=O)[C@@H]2CCCN2C1=O [3BP-3854, Hex-[Cys(tMeBn(DOTA-PP))-Pro-Thr-Pro-Phe-Gln-Cys]-Asp-NH2] (Hexanoyl-CPTPFQCD-NH2; linker 1-7 via X13) | > 1000 | > 1000 |  |
